Source: paper PMC6934184, “Selective DNA-PKcs inhibition extends the therapeutic index of localized radiotherapy and chemotherapy” (The Journal of Clinical Investigation, 2019)

Target: T1, PI4KB (PI4K beta) (Homo sapiens, UniProt Q9UBF8)
T1 construct: purchased Thermo Fisher Scientific (Life Technologies) SelectScreen
Test: SelectScreen Adapta
Format: biochemical
Method in brief: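 NU5455 was profiled across the SelectScreen Broad panel of kinase activity and binding assays. Z'LYTE reactions such as CSF1R ran at apparent Km ATP, while the Adapta CAMK1 assay used ATP listed as 10. Values are given as percent.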

T1 sequence (Q9UBF8 whole entry): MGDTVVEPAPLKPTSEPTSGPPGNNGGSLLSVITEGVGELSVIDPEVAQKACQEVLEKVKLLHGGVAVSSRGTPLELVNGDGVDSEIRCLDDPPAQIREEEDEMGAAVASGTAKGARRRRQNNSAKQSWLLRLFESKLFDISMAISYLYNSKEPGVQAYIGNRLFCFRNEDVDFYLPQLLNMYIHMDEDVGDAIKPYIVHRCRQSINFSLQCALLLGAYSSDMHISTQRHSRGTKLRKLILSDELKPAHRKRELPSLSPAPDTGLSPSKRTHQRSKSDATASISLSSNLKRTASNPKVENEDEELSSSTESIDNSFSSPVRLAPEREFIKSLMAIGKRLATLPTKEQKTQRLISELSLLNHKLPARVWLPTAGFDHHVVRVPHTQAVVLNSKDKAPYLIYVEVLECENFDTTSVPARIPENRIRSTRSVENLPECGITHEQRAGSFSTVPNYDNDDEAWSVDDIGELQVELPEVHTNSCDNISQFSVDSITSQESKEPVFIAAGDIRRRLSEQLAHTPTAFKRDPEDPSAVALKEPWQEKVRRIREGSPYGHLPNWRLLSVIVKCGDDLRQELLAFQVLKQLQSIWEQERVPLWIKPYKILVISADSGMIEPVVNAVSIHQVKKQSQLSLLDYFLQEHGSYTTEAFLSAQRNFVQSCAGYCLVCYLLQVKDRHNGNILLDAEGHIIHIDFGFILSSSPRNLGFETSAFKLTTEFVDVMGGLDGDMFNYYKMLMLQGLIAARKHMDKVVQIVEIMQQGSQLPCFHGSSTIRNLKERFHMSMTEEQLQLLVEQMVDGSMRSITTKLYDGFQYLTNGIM

With `CN(C(=O)CN1CCOCC1)c1ccc2sc3c(-c4cccc5c(=O)cc(N6CC7CCC(C6)O7)oc45)cccc3c2c1` [NU5455] the inhibition at 1 µM was -4.7%.
